Measured values taken from patent US20090298825A1, “Bicycloheteroaryl Compounds as P2x7 Modulators and Uses Thereof” (priority 2006, published 2009).

Molecular target: T1, P2X7 receptor (Homo sapiens, UniProt Q99572)
T1 construct: endogenous in cells; host or cells: THP-1 cells differentiated with LPS and IFN-γ
T1 sequence (Q99572 1-595): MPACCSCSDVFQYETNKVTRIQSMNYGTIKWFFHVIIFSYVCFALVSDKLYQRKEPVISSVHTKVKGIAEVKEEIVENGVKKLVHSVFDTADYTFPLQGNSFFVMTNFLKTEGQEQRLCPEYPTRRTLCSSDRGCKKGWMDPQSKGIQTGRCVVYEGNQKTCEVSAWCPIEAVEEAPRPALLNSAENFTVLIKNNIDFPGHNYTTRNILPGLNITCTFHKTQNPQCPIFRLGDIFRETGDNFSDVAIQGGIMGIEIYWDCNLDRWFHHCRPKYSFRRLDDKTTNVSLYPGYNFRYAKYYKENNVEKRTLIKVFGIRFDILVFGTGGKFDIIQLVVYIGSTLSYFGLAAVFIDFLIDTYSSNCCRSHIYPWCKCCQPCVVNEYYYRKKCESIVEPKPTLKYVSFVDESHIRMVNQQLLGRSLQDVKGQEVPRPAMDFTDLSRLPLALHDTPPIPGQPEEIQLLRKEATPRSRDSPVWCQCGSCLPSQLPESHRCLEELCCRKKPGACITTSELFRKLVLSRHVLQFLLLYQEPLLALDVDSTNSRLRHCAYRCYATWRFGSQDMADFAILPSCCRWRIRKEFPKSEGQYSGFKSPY
Experiment: IL-1β release assay in differentiated THP-1 cells stimulated with BzATP (Example 9)
Format: cell-based
Settings: for inhibition at 0.1 µM: 0.1 μM concentration; for inhibition at 0.1 µM / inhibition at 0.3 µM: read-out: IL-1β % Inhib. @ 0.3 or 0.1 μM; for inhibition at 0.3 µM: 0.3 μM concentration; for IC50: four parameter logistic fit, read-out: IL-1β IC50
Description: The cells are then pretreated for 30 minutes with the compound of interest at the appropriate concentration in RPMI media containing 100 IU/mL penicillin, 100 ug/mL streptomycin. […] 30 uL of cell supernatant is then collected and IL-1β levels determined via ELISA (R&D systems Cat. # HSLB50) according to manufacturer's recommendations using the Tecan Safire plate reader. Background adjusted IL-1β levels of drug treated and non-treated cells are used to calculate the percent inhibition.
The compounds set forth in Table 1 were tested for activity in a cellular model as described herein. […] Measurements were made and IC50 values, presented in Table 2, below, were determined by fitting the data to a four parameter logistic equation using GraphPad Prism software (GraphPad Software, Inc). The equation may be expressed by the following formula:
Y=Bottom+(Top-Bottom)/(1+10̂((Log EC50−X)*HillSlope))
Where X is the logarithm of concentration, Y is the response and Y starts at Bottom and goes to Top with a sigmoid shape.

inhibition at 0.1 µM [%] | inhibition at 0.3 µM [%] | IC50 [nM] | SMILES
 | > 76 | 99 | O=C(Cc1ccc(Cl)c(C(F)(F)F)c1)Nc1cccc2c(=O)n(C3CCNCC3)ccc12 [ID 818]
 | > 76 | 8.32 | CC(C(=O)Nc1cccc2c(=O)n(-c3cccnc3F)ccc12)c1cccc(C(F)(F)F)c1F (centres unmarked) [ID 875]
0 to 25 |  |  | CCOC(=O)N1CCC(n2ccc3c(NC(=O)c4ccc(C)c(Cl)c4)cccc3c2=O)CC1 [ID 793]
0 to 25 |  |  | CCOC(=O)N1CCC(n2ccc3c(NC(=O)CCc4ccc(C)cc4C)cccc3c2=O)CC1 [ID 810]
0 to 25 |  |  | CCOC(=O)N1CCC(n2ccc3c(NC(=O)[C@@]45C[C@@H]6C[C@@H](C[C@@H]4C6)C5)cccc3c2=O)CC1 [ID 797]
 | > 76 | 1.24 | O=C(Cc1ccc(Cl)c(C(F)(F)F)c1)Nc1cccc2c(=O)n(-c3cc[nH]n3)ccc12 [ID 842]
 | > 76 | 4.97 | O=C(Cc1ccc(Cl)c(C(F)(F)F)c1)Nc1cccc2c(=O)n(-c3cccnc3F)ccc12 [ID 870]
 | > 76 | 129 | Cc1ccncc1-n1ccc2c(NC(=O)Cc3ccc(C(F)(F)F)c(F)c3)cccc2c1=O [ID 856]
0 to 25 |  |  | CCOC(=O)N1CCC(n2ccc3c(NC(=O)C45CC6C[C@H](C4)C[C@@](O)(C6)C5)cccc3c2=O)CC1 [ID 796]
 | > 76 | 22.1 | O=C(Cc1ccc(C(F)(F)F)c(F)c1)Nc1cccc2c(=O)n(C3CCC3)ccc12 [ID 892]
 | > 76 | 68.7 | Cc1ncccc1-n1ccc2c(NC(=O)Cc3ccc(C(F)(F)F)cc3C(F)(F)F)cccc2c1=O [ID 868]
 | 51 to 75 | 206 | O=C(CC1CCCCCC1)Nc1cccc2c(=O)n(C3CCNCC3)ccc12 [ID 819]
 | > 76 | 0.777 | O=C(CC12CC3CC(CC(C3)C1)C2)Nc1cccc2c(=O)n(C3CC3)ccc12 [ID 889]
0 to 25 |  |  | CCOC(=O)N1CCC(n2ccc3c(NC(=O)c4cccc(Cl)c4C)cccc3c2=O)CC1 [ID 801]
 | > 76 | 40.2 | Cc1ccc2c(=O)n([C@H]3CCNC3)ccc2c1NC(=O)Cc1ccc(C(F)(F)F)c(F)c1 [ID 900]
 | 0 to 25 | 760 | O=C(CC1(O)CCCCCC1)Nc1cccc2c(=O)n(C3CCNCC3)ccc12 [ID 813]
 | > 76 | 6.79 | O=C(Cc1ccc(C(F)(F)F)c(F)c1)Nc1cccc2c(=O)n(C3CC3)ccc12 [ID 879]
 | > 76 | 43 | Cc1ncccc1-n1ccc2c(NC(=O)[C@H](C)c3ccc(Cl)cc3)cccc2c1=O [ID 863]
 | > 76 | 147 | Cc1ncccc1-n1ccc2c(NC(=O)Cc3ccc(C(F)(F)F)cc3)cccc2c1=O [ID 851]
 | > 76 | 25.7 | O=C(CC1CCCCCC1)Nc1cccc2c(=O)n(C3CCNC3)ccc12 (centres unmarked) [ID 820]
 | 51 to 75 | 151 | CC(C(=O)Nc1cccc2c(=O)n([C@@H]3CCNC3)ccc12)c1ccc(Cl)cc1 (some centres unmarked) [ID 835]
 | 51 to 75 | 275 | O=C(CC1(O)CCCCCC1)Nc1cccc2c(=O)n([C@@H]3CCNC3)ccc12 [ID 837]
 | > 76 | 11 | Cc1ccc2c(=O)n([C@H]3CCNC3)ccc2c1NC(=O)Cc1ccc(F)c(C(F)(F)F)c1 [ID 901]
 | > 76 | 37.6 | CC(C(=O)Nc1cccc2c(=O)n(-c3n[nH]cc3C#N)ccc12)c1ccc(Cl)c(C(F)(F)F)c1 (centres unmarked) [ID 840]
 | > 76 | 111 | Cc1ncccc1-n1ccc2c(NC(=O)[C@@H](C)c3ccc(Cl)cc3)cccc2c1=O [ID 864]
 | > 76 | 13.9 | Cc1ncccc1-n1ccc2c(NC(=O)Cc3ccc(F)c(C(F)(F)F)c3)cccc2c1=O [ID 860]

The next lines start with the compound.

SMILES | inhibition at 0.1 µM [%] | inhibition at 0.3 µM [%] | IC50 [nM]
CCOC(=O)N1CCC(n2ccc3c(NC(=O)Cc4ccc(OCC)cc4)cccc3c2=O)CC1 [ID 786] | 0 to 25 |  | 
Cc1cc(-n2ccc3c(NC(=O)c4ccccc4C)cccc3c2=O)no1 [ID 720] | 0 to 25 |  | 
CCOC(=O)N1CCC(n2ccc3c(NC(=O)C(C)c4ccccc4)cccc3c2=O)CC1 (centres unmarked) [ID 774] | 0 to 25 |  | 
Cc1cccc(CCC(=O)Nc2cccc3c(=O)n(-c4cc(C)on4)ccc23)c1 [ID 742] | 0 to 25 |  | 
O=C(CC12CC3CC(CC(C3)C1)C2)Nc1cccc2c(=O)n(-c3cccnc3N3CCOCC3)ccc12 [ID 712] |  | > 76 | 0.384
O=C(CC12CC3CC(CC(C3)C1)C2)Nc1cccc2c(=O)n(-c3ccc(N4CCOCC4)nc3)ccc12 [ID 709] |  | > 76 | 25.6
CCOC(=O)N1CCC(n2ccc3c(NC(=O)CCc4ccccc4C)cccc3c2=O)CC1 [ID 751] | 0 to 25 |  | 
Cc1ccc(C)c(C(=O)Nc2cccc3c(=O)n(-c4cc(C)on4)ccc23)c1 [ID 722] | 26 to 50 |  | 
CCOC(=O)N1CCC(n2ccc3c(NC(=O)CCc4cccc(OC)c4)cccc3c2=O)CC1 [ID 753] | 0 to 25 |  | 
CCOC(=O)N1CCC(n2ccc3c(NC(=O)c4cc5ccccc5o4)cccc3c2=O)CC1 [ID 789] | 0 to 25 |  | 
COc1ccc(-n2ccc3c(NC(=O)CC45CC6CC(CC(C6)C4)C5)cccc3c2=O)cn1 [ID 705] |  | > 76 | 2.4
CCOC(=O)N1CCC(n2ccc3c(NC(=O)c4ccccc4C)cccc3c2=O)CC1 [ID 764] | 0 to 25 |  | 
CCOC(=O)N1CCC(n2ccc3c(NC(=O)Cc4ccc(OC)cc4)cccc3c2=O)CC1 [ID 785] | 0 to 25 |  | 
O=C(Cc1ccc(Cl)cc1F)Nc1cccc2c(=O)n(C3CN4CCC3CC4)ccc12 (centres unmarked) [ID 846] |  | > 76 | 162
CCOC(=O)N1CCC(n2ccc3c(NC(=O)c4cccc(OCC)c4)cccc3c2=O)CC1 [ID 757] | 0 to 25 |  | 
CC12CC3CC(C)(C1)CC(CC(=O)Nc1cccc4c(=O)n(-c5cccnc5)ccc14)(C3)C2 [ID 701] |  | > 76 | 3.22
CCOC(=O)N1CCC(n2ccc3c(NC(=O)c4ccc(OC)c(Cl)c4)cccc3c2=O)CC1 [ID 756] | 0 to 25 |  | 
CCOC(=O)N1CCC(n2ccc3c(NC(=O)Cc4cc(OC)cc(OC)c4)cccc3c2=O)CC1 [ID 791] | 0 to 25 |  | 
COc1ccc(CC(=O)Nc2cccc3c(=O)n(-c4cc(C)on4)ccc23)c(OC)c1 [ID 739] | 0 to 25 |  | 
CCOC(=O)N1CCC(n2ccc3c(NC(=O)Cc4ccccc4C)cccc3c2=O)CC1 [ID 781] | 0 to 25 |  | 
O=C(CC1CCCCCC1)Nc1cccc2c(=O)n([C@H]3CCNC3)ccc12 [ID 824] |  | > 76 | 3.2
CCOC(=O)N1CCC(n2ccc3c(NC(=O)c4ccccc4Cl)cccc3c2=O)CC1 [ID 761] | 0 to 25 |  | 
Cc1ccc(C)c(CC(=O)Nc2cccc3c(=O)n(-c4cc(C)on4)ccc23)c1 [ID 716] | 0 to 25 |  | 
Cc1cc(-n2ccc3c(NC(=O)Cc4ccccc4F)cccc3c2=O)no1 [ID 726] | 0 to 25 |  | 
Cc1ccc(-n2ccc3c(NC(=O)CC45CC6CC(CC(C6)C4)C5)cccc3c2=O)c(C)n1 [ID 703] |  | > 76 | 13.2
Cc1cccc(C(=O)Nc2cccc3c(=O)n(-c4cc(C)on4)ccc23)c1 [ID 723] | 0 to 25 |  | 
